Results taken from article PMC6968503, “Synthesis and human carbonic anhydrase I, II, VA, and XII inhibition with novel amino acid–sulphonamide conjugates” (Journal of Enzyme Inhibition and Medicinal Chemistry, 2020).
Like-named read-outs stand apart in the source and are kept apart here.

Legend:
Assay in all cases: stopped-flow CO2 hydration
Assay type in all cases: biochemical
hCA VA = target: T1, hCA VA (Homo sapiens, UniProt P35218)
T1 construct: gene CA5A
From the text: stopped-flow CO2 hydration on hCA VA

hCA I = target: T2, hCA I (Homo sapiens, UniProt P00915)
T2 construct: gene CA1
From the text: stopped-flow CO2 hydration on hCA I

hCA II = target: T3, hCA II (Homo sapiens, UniProt P00918)
T3 construct: gene CA2
From the text: stopped-flow CO2 hydration on hCA II

hCA XII = target: T4, hCA XII (Homo sapiens, UniProt O43570)
T4 construct: gene CA12
From the text: stopped-flow CO2 hydration on hCA XII

T4 sequence (O43570 25-354): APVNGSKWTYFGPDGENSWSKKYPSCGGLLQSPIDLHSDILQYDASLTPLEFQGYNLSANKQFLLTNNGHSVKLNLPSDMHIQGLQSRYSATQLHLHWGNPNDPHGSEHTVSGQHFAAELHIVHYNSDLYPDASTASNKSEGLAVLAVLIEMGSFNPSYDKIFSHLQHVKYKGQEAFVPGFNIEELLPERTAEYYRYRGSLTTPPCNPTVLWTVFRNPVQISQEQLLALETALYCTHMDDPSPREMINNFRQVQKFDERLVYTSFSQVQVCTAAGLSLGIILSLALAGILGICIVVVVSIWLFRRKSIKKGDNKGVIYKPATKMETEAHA
T1 sequence (P35218 39-305): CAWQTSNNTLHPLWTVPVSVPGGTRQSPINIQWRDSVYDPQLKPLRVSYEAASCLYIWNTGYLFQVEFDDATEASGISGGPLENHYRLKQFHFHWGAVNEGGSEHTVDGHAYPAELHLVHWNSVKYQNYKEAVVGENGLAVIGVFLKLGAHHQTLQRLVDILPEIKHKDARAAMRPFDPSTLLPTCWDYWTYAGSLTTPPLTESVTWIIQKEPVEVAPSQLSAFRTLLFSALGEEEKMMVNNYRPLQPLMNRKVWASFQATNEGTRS
T2 sequence (P00915 2-261): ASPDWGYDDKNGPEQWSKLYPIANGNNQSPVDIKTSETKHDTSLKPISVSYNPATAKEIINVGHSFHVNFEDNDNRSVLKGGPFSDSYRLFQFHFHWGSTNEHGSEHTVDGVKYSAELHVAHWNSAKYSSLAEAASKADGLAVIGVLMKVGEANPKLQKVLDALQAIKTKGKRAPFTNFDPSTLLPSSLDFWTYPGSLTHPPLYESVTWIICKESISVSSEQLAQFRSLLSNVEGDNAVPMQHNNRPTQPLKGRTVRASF

SMILES	Ki (hCA VA; CO2 […], […] HEPES pH […] Na2SO4, […] min preincubation, room temperature)	Ki (hCA I)	Ki (hCA II)	Ki (hCA XII)	Ki (hCA VA)
CC(C)C[C@@H](NC(=O)OCc1ccccc1)C(=O)NCCc1ccc(S(N)(=O)=O)cc1 [compound 1, Benzyl (R)-(4-methyl-1-oxo-1-((4-sulphamoylphenethyl)amino)pentan-2-yl)carbamate]	58.7 nM	49.5 nM	8.3 nM	27.4 nM	
CSCC[C@@H](NC(=O)OCc1ccccc1)C(=O)NCCc1ccc(S(N)(=O)=O)cc1 [compound 2, Benzyl (R)-(4-(methylthio)-1-oxo-1-((4-sulphamoylphenethyl)amino)butan-2-yl)carbamate]			1.7 nM	53.9 nM	63.4 nM
CC(C)[C@@H](NC(=O)OCc1ccccc1)C(=O)NCCc1ccc(S(N)(=O)=O)cc1 [compound 3, Benzyl (R)-(3-methyl-1-oxo-1-((4-sulphamoylphenethyl)amino)butan-2-yl)carbamate]		51.6 nM		7.2 nM	60.3 nM
NS(=O)(=O)c1ccc(CCNC(=O)[C@@H](CSc2ccccc2)NC(=O)OCc2ccccc2)cc1 [compound 4, Benzyl (S)-(1-oxo-3-(phenylthio)-1-((4-sulphamoylphenethyl)amino)propan-2-yl)carbamate]		352 nM		8.4 nM	63.3 nM
C[C@@H](NC(=O)OC(C)(C)C)C(=O)NCCc1ccc(S(N)(=O)=O)cc1 [compound 5, tert-Butyl (R)-(1-oxo-1-((4-sulphamoylphenethyl)amino)propan-2-yl)carbamate]		73.5 nM	6.6 nM	45.6 nM	68.7 nM
NS(=O)(=O)c1ccc(CCNC(=O)CNC(=O)OCC2c3ccccc3-c3ccccc32)cc1 [compound 6, (9H-fluoren-9-yl)methyl (2-oxo-2-((4-sulphamoylphenethyl)amino)ethyl)carbamate]		36 nM	6.4 nM	8.2 nM	67.9 nM
NS(=O)(=O)c1ccc(CCNC(=O)[C@H](Cc2ccccc2)NC(=O)OCC2c3ccccc3-c3ccccc32)cc1 [compound 7, (9H-fluoren-9-yl)methyl (S)-(1-oxo-3-phenyl-1-((4-sulphamoylphenethyl)amino)propan-2-yl)carbamate]		697 nM	76.4 nM	38.9 nM	3440 nM
NS(=O)(=O)c1ccc(CCNC(=O)[C@@H](Cc2c[nH]c3ccccc23)NC(=O)OCc2ccccc2)cc1 [compound 8, Benzyl (R)-(3-(1H-indol-3-yl)-1-oxo-1-((4-sulphamoylphenethyl)amino)propan-2-yl)carbamate]		528 nM	6.5 nM	5.5 nM	3010 nM
CSCC[C@H](NC(=O)OC(C)(C)C)C(=O)NCCc1ccc(S(N)(=O)=O)cc1 [compound 9, tert-Butyl (S)-(4-(methylthio)-1-oxo-1-((4-sulphamoylphenethyl)amino)butan-2-yl)carbamate]		4390 nM		329 nM	611 nM
CC(C)[C@@H](NC(=O)OC(C)(C)C)C(=O)NCCc1ccc(S(N)(=O)=O)cc1 [compound 10, tert-Butyl (R)-(3-methyl-1-oxo-1-((4-sulphamoylphenethyl)amino)butan-2-yl)carbamate]		2990 nM		197 nM	661 nM
CC[C@@H](C)[C@@H](NC(=O)OC(C)(C)C)C(=O)NCCc1ccc(S(N)(=O)=O)cc1 [compound 11, tert-Butyl ((2R,3R)-3-methyl-1-oxo-1-((4-sulphamoylphenethyl)amino)pentan-2-yl)carbamate]		349 nM		56.2 nM	3870 nM
NS(=O)(=O)c1ccc(CCNC(=O)C[C@@H](NC(=O)OCc2ccccc2)C(=O)NCCc2ccc(S(N)(=O)=O)cc2)cc1 [compound 12, Benzyl (R)-(1,4-dioxo-1,4-bis((4-sulphamoylphenethyl)amino)butan-2-yl)carbamate]		689 nM	215 nM	24.4 nM	3140 nM
CC(C)C[C@@H](NC(=O)OCc1ccccc1)C(=O)NCc1ccc(S(N)(=O)=O)cc1 [compound 13, Benzyl (R)-(4-methyl-1-oxo-1-((4-sulphamoylbenzyl)amino)pentan-2-yl)carbamate]		61.1 nM	86.6 nM	39.8 nM	578 nM
CSCC[C@@H](NC(=O)OCc1ccccc1)C(=O)NCc1ccc(S(N)(=O)=O)cc1 [compound 14, Benzyl (R)-(4-(methylthio)-1-oxo-1-((4-sulphamoylbenzyl)amino)butan-2-yl)carbamate]		9.3 nM	8.9 nM	74.3 nM	384 nM
CC(C)[C@@H](NC(=O)OCc1ccccc1)C(=O)NCc1ccc(S(N)(=O)=O)cc1 [compound 15, Benzyl (R)-(3-methyl-1-oxo-1-((4-sulphamoylbenzyl)amino)butan-2-yl)carbamate]		8.1 nM	28.4 nM	67.7 nM	503 nM
NS(=O)(=O)c1ccc(CNC(=O)[C@@H](CSc2ccccc2)NC(=O)OCc2ccccc2)cc1 [compound 16, Benzyl (S)-(1-oxo-3-(phenylthio)-1-((4-sulphamoylbenzyl)amino)propan-2-yl)carbamate]		764 nM	3.3 nM	37.1 nM	3960 nM
CC(C)(C)OC(=O)NCC(=O)NCc1ccc(S(N)(=O)=O)cc1 [compound 17, tert-Butyl (2-oxo-2-((4-sulphamoylbenzyl)amino)ethyl)carbamate]		3340 nM	6.8 nM	8.8 nM	3650 nM
C[C@@H](NC(=O)OC(C)(C)C)C(=O)NCc1ccc(S(N)(=O)=O)cc1 [compound 18, tert-Butyl (R)-(1-oxo-1-((4-sulphamoylbenzyl)amino)propan-2-yl)carbamate]		3890 nM	6.8 nM	20.6 nM	5360 nM
CC(C)(C)OC(=O)N[C@H](Cc1ccccc1)C(=O)NCc1ccc(S(N)(=O)=O)cc1 [compound 19, tert-Butyl (R)-(1-oxo-3-phenyl-1-((4-sulphamoylbenzyl)amino)propan-2-yl)carbamate]		3780 nM	61.4 nM	6.9 nM	734 nM
NS(=O)(=O)c1ccc(CNC(=O)[C@H](Cc2ccccc2)NC(=O)OCC2c3ccccc3-c3ccccc32)cc1 [compound 20, (9H-fluoren-9-yl)methyl (S)-(1-oxo-3-phenyl-1-((4-sulphamoylbenzyl)amino)propan-2-yl)carbamate]		5170 nM	693 nM	26.7 nM	6830 nM
CSCC[C@@H](NC(=O)OC(C)(C)C)C(=O)NCc1ccc(S(N)(=O)=O)cc1 [compound 21, tert-Butyl (R)-(4-(methylthio)-1-oxo-1-((4-sulphamoylbenzyl)amino)butan-2-yl)carbamate]		5360 nM	316 nM	3.9 nM	4990 nM
CC(C)[C@@H](NC(=O)OC(C)(C)C)C(=O)NCc1ccc(S(N)(=O)=O)cc1 [compound 22, tert-Butyl (R)-(3-methyl-1-oxo-1-((4-sulphamoylbenzyl)amino)butan-2-yl)carbamate]		753 nM	168 nM	90.1 nM	4780 nM
NS(=O)(=O)c1ccc(CNC(=O)[C@@H](Cc2c[nH]c3ccccc23)NC(=O)OCc2ccccc2)cc1 [compound 23, Benzyl (R)-(3-(1H-indol-3-yl)-1-oxo-1-((4-sulphamoylbenzyl)amino)propan-2-yl)carbamate]		305 nM	0.9 nM	78.1 nM	401 nM
CC[C@@H](C)[C@@H](NC(=O)OC(C)(C)C)C(=O)NCc1ccc(S(N)(=O)=O)cc1 [compound 24, tert-Butyl ((2R,3R)-3-methyl-1-oxo-1-((4-sulphamoylbenzyl)amino)pentan-2-yl)carbamate]		178 nM	0.8 nM	50.3 nM	4580 nM
